Data as given in patent publication US4146501A, “Process for isolating and purifying taste bud receptors for screening and evaluating tastants” (priority 1976, dated 1979).
Entries after “also recorded” stand apart in the source; their conditions may differ. Read-outs that look alike come from different tables or passages of the source.

How the values were obtained:
[1] = tested on: taste bud filtrates and B subfractions [P2,3,4(B)]; assay: Binding of 14C sugars to taste bud filtrates and B subfractions; parameters: species or system bovine; conditions: for 14C sugar binding / Relative enrichment of sugar binding compared to the initial filtrate: Bud; for 14C sugar binding: 30 min at 30° C
Protocol: (§1) The following procedure was utilized in tastant evaluation according to the process of this invention: Protein concentrations were determined by the methods of Lowry et al., (1951) J. Biol. […] According to density, physical appearance as determined by using electron microscopic morphology enzymatic activity and chemical analysis, B subfractions from taste buds and epithelial tissues achieved the greatest membrane purification compared with other subfractions. Among the taste bud B subfractions, P4(B) was morphologically more homogeneous with respect to membranes than P3(B) whereas P2(B) was the least homogeneous of all. Epithelial tissue B subfractions contained mainly fibrous tissue and few differences were found in morphology, density, enzymatic activity or chemical analysis between P2(B) or P4(B) subfractions. Taste bud and epithelial tissue D subfractions contained relatively few membrane fragments compared to the large amount of other cellular organelles present and therefore were not included in these studies. […] Each filtrate and subfraction was washed three times with calcium free, 0.2 M Krebs-Ringer bicarbonate (KRB) pH 7.4, suspended in the same buffer in a final volume of 2 ml and frozen in liquid nitrogen. No detectable change in binding characteristics from suspensions of taste bud or epithelial tissue fractions was observed after storage at -80° for as long as two months. All binding studies were carried out in plastic micro test tubes in a constant temperature shaking bath. For these studies KRB, suspensions of the initial filtrates, subfractions and ^14 C labeled and/or unlabeled sugars were incubated in a final volume of 100 μl. After incubation the tubes were placed in an ice bath, centrifuged, the supernatant aspirated and 10 μl KRB layered on top of the pellet. The KRB was then aspirated, the top of the test tube cut off with a razor blade just above the bellet, placed into 10 ml Aquasol (New England Nuclear Corp., Boston, Mass.) and the radioactivity determined in a liquid scintillation spectrophotometer. Controls, without filtrates or subfractions, were also included. […] The tubes were then placed in an ice bath for 3 minutes, and then centrifuged at 15,000 rpm for 6 min.

[2] = tested on: taste bud P4(B) subfractions; assay: Specific binding: competition of 14C sugars or SSS with unlabeled homologous and heterologous sugars, Scatchard analysis; parameters: species or system bovine; conditions: for competition of unlabeled sugar with glucose binding / competition of unlabeled sugar with sucrose binding / competition of unlabeled sugar with fructose binding: FIG. 8, in words; for Kd: mean ± 1 SEM; for Inhibition (%) of 14C Fructose binding by unlabelled sugar / Inhibition (%) of 14C Glucose binding by unlabelled sugar / Inhibition (%) of 14C Sucrose binding by unlabelled sugar: maximal concentration of unlabelled sugar, range of values; for Relative Binding Inhibition: homologous set at 100; for specific binding (competition of 14C sugar or SSS with homologous unlabeled sugar or SSS): taste bud P4(B), FIG. 7
[3] = behavioral basis, cow; cited from earlier work
[4] = cited from earlier work
[5] = tested on: non-taste bud bearing epithelial tissue filtrates and B subfractions [P2,4(B)]; assay: Binding of 14C sugars to non-taste bud bearing epithelial tissue filtrates and B subfractions (control); parameters: species or system bovine; conditions: Epi; for 14C sugar binding: 30 min at 30° C
Protocol: as §1

[6] = tested on: taste bud subfraction P4(B); assay: Binding inhibition of 14C sucrose by various substances; parameters: species or system bovine
[7] = tested on: epithelial tissue P4(B) subfractions; assay: Specific binding: competition of 14C sugars or SSS with unlabeled homologous sugars (epithelial control); parameters: species or system bovine; conditions: FIG. 7
Protocol: All binding studies were carried out in plastic micro test tubes in a constant temperature shaking bath. For these studies KRB, suspensions of the initial filtrates, subfractions and ^14 C labeled and/or unlabeled sugars were incubated in a final volume of 100 μl. After incubation the tubes were placed in an ice bath, centrifuged, the supernatant aspirated and 10 μl KRB layered on top of the pellet. The KRB was then aspirated, the top of the test tube cut off with a razor blade just above the bellet, placed into 10 ml Aquasol (New England Nuclear Corp., Boston, Mass.) and the radioactivity determined in a liquid scintillation spectrophotometer. Controls, without filtrates or subfractions, were also included.

[8] = tested on: taste bud subfraction P4(B); assay: Time and temperature effects on 14C sucrose binding; parameters: species or system bovine; conditions: 26 μM 14C sucrose
Protocol: (§2) All binding studies were carried out in plastic micro test tubes in a constant temperature shaking bath. For these studies KRB, suspensions of the initial filtrates, subfractions and ^14 C labeled and/or unlabeled sugars were incubated in a final volume of 100 μl. After incubation the tubes were placed in an ice bath, centrifuged, the supernatant aspirated and 10 μl KRB layered on top of the pellet.
(§3) The KRB was then aspirated, the top of the test tube cut off with a razor blade just above the bellet, placed into 10 ml Aquasol (New England Nuclear Corp., Boston, Mass.) and the radioactivity determined in a liquid scintillation spectrophotometer. Controls, without filtrates or subfractions, were also included. These controls represent background radioactivity composed mainly of ^14 C sugars bound to the walls of the plastic test tubes. This background radioactivity was always found to be less than 1% of the lowest level obtained in any study with added tissue fractions. Calculations of ^14 C sugar binding also included a correction for non-specific binding (i.e., ^14 C sugar binding not inhibited by an excess of the unlabeled homologous sugar, which occurred when tissue suspensions were used. This value (40%) was the mean calculated from the results of 56 duplicate experiments. […]

[9] = tested on: taste bud P4(B) subfractions; assay: Displacement of bound 14C sucrose by unlabeled sucrose; format: binding, bovine; conditions: after addition of unlabeled sucrose (0.01-1 mM), FIG. 5; 20 min
Protocol: as §2, §3

[10] = tested on: epithelial P4(B) subfractions; assay: Displacement of bound 14C sucrose by unlabeled sucrose (epithelial control); format: binding, bovine
Protocol: as §2, §3

[11] = Filtrate, 14C glucose 200 μM, fructose 400 μM, sucrose 26 μM
[12] = Scatchard plot, single class of sites, read-out: Kd (dissociation constant)
[13] = section FRUCTOSE (as the 14C sugar per footnote) with each unlabelled sugar
[14] = section SUCROSE (as the 14C sugar per footnote) with each unlabelled sugar
[15] = non-linear Scatchard plot, primary class of binding sites, read-out: Kd (dissociation constant), K1
[16] = non-linear Scatchard plot, secondary class of binding sites, read-out: Kd (dissociation constant), K2
[17] = secondary class of binding sites

Row | 14C sugar binding [1, 11] | Relative enrichment of sugar binding compared to the initial filtrate ([1]; P2(B)) | 14C sugar binding ([1]; P2(B)) | Relative enrichment of sugar binding compared to the initial filtrate ([1]; P3(B)) | 14C sugar binding ([1]; P3(B)) | Relative enrichment of sugar binding compared to the initial filtrate ([1]; P4(B)) | 14C sugar binding ([1]; P4(B)) | Kd [2, 12] | Inhibition (%) of 14C Fructose binding by unlabelled sugar [2] | Inhibition (%) of 14C Glucose binding by unlabelled sugar [2] | Inhibition (%) of 14C Sucrose binding by unlabelled sugar [2] | Relative Binding Inhibition [2, 14] | q (concentration of sugar or SSS bound per mg subfraction protein) ([2]; single class of sites) | specific binding (competition of 14C sugar or SSS with homologous unlabeled sugar or SSS) [2] | 14C sugar binding [5, 11] | Relative enrichment of sugar binding compared to the initial filtrate ([5]; P2(B)) | 14C sugar binding ([5]; P2(B)) | Relative enrichment of sugar binding compared to the initial filtrate ([5]; P4(B)) | 14C sugar binding ([5]; P4(B)) | SMILES | Recognition thresholds in man [4] | also measured
1 | 153000 cpm/mg protein | 3.7 | 569000 cpm/mg protein | 8.5 | 1.3e+06 cpm/mg protein | 17.8 | 2.72e+06 cpm/mg protein | 1.8 ± 0.9 mM | 70-80% | 36-40% | 14-20% | 59% | 10.5 ± 1.2 mM/mg protein | occurred | 88000 cpm/mg protein | 1.1 | 95000 cpm/mg protein | 0.9 | 78000 cpm/mg protein | O=C(CO)[C@@H](O)[C@H](O)[C@H](O)CO [Fructose, fructose] | 0.01 to 0.03 M | competition of unlabeled sugar with glucose binding [2]: competed with glucose; competition of unlabeled sugar with sucrose binding [2]: did not; Inhibition (%) of 14C Fructose binding by unlabelled sugar ([2]; listed as fructose): about 80%; Relative Binding Inhibition [2, 13]: 100%; bovine discrimination thresholds [3]: 0.06 M
2 | – | – | – | – | – | – | – | – | – | – | – | – | – | – | – | – | – | – | – | NC(N)=O [urea] | – | inhibition of 14C sucrose binding ([6]; urea 5M, 26 μM 14C sucrose): ~30%
3 | – | – | – | – | – | – | – | – | – | – | – | – | – | – | – | – | – | – | – | [Cl-].[Cl-].[Zn+2] [ZnCl2] | – | sucrose binding activity restored, of the initial activity measured in the absence of EDTA ([6]; 5 mM EDTA plus 20 mM Zn++): about 85%
4 | 37000 cpm/mg protein | 3.2 | 120000 cpm/mg protein | 9.7 | 360000 cpm/mg protein | 9.4 | 348000 cpm/mg protein | 3.4 ± 1.1 mM | 14-20% | 70-80% | 14-20% | 32% | 2.5 ± 0.5 mM/mg protein | occurred | 22000 cpm/mg protein | 1.3 | 29000 cpm/mg protein | 0.8 | 17000 cpm/mg protein | OC[C@H]1OC(O)[C@H](O)[C@@H](O)[C@@H]1O (stereo partly shown) [Glucose, glucose] | 0.01 to 0.03 M | competition of unlabeled sugar with fructose binding [2]: did not compete; competition of unlabeled sugar with sucrose binding [2]: did not compete; Inhibition (%) of 14C Glucose binding by unlabelled sugar ([2]; listed as glucose): eighty; Relative Binding Inhibition [2, 13]: 51%; Relative Binding Inhibition ([2]; section GLUCOSE (as the 14C sugar per footnote) with each unlabelled sugar): 100%
5 | 36000 cpm/mg protein | 3.1 | 113000 cpm/mg protein | 7.0 | 255000 cpm/mg protein | 23.8 | 868000 cpm/mg protein | 1.1 ± 0.4 mM | 50-60% | 60-65% | 70-80% | 100% | 51 ± 8 mM/mg protein | occurred | 33000 cpm/mg protein | 1.1 | 37000 cpm/mg protein | 0.5 | 18000 cpm/mg protein | OC[C@H]1O[C@@](CO)(O[C@H]2O[C@H](CO)[C@@H](O)[C@H](O)[C@H]2O)[C@@H](O)[C@@H]1O [Sucrose, sucrose] | 0.01 to 0.03 M | increase of sucrose binding activity following increase in incubation temperature from 0° C. to 30° C. ([8]; FIG. 3): four; time to plateau of 14C sucrose binding ([8]; at 30° C.): about 25 min; increase in sugar binding compared to the initial filtrate ([1]; taste bud subfraction P3(B)): 7 fold; increase in sugar binding compared to the initial filtrate ([1]; taste bud subfraction P4(B)): 24 fold; competition of unlabeled sugar with fructose binding [2]: competed with both glucose and fructose; competition of unlabeled sugar with glucose binding [2]: competed with both glucose and fructose; Inhibition (%) of 14C Sucrose binding by unlabelled sugar ([2]; listed as sucrose): about 80%; bovine discrimination thresholds [3]: 0.03 M; detection thresholds in normal man ([4]; reported as low as): ≥ 5 mM; maximum displacement of the 14C sucrose initially bound [9]: about 80%; reversal of 14C sucrose binding by excess unlabeled sucrose [10]: could not be reversed
6 | – | – | – | – | – | – | – | – | – | – | – | – | – | occurred | – | – | – | – | – | O=C1NS(=O)(=O)c2ccccc21 [SACCHARINE, saccharine] | – | Kd [2, 15]: 18.3 ± 3.9 mM; Kd [2, 16]: 66.2 ± 6.8 mM; q (concentration of sugar or SSS bound per mg subfraction protein), K1 ([2]; primary class of binding sites): 2.7 ± 1.0 mM/mg protein; q (concentration of sugar or SSS bound per mg subfraction protein), K2 [2, 17]: 6.4 ± 0.4 mM/mg protein
7 | – | – | – | – | – | – | – | – | – | – | – | – | – | – | – | – | – | – | – | O=C(O)CN(CCN(CC(=O)O)CC(=O)O)CC(=O)O [EDTA, ethylenediaminetetraacetic acid] | – | inhibition of 14C sucrose binding [6]: approximately 40%
8 | – | – | – | – | – | – | – | – | – | – | – | – | – | – | – | – | – | – | – | [Cl-].[Na+] [NaCl] | – | inhibition of 14C sucrose binding [6]: ~50%
9 | – | – | – | – | – | – | – | – | – | – | – | – | – | occurred | – | – | – | – | – | O=S(=O)(O)NC1CCCCC1 [CYCLAMATE, cyclamate] | – | Kd [2, 15]: 11.7 ± 2.4 mM; Kd [2, 16]: 32.6 ± 3.9 mM; q (concentration of sugar or SSS bound per mg subfraction protein), K1 ([2]; primary class of binding sites): 4.0 ± 0.9 mM/mg protein; q (concentration of sugar or SSS bound per mg subfraction protein), K2 [2, 17]: 6.6 ± 1.4 mM/mg protein

Row | SMILES | 14C sugar binding [1, 11] | Relative enrichment of sugar binding compared to the initial filtrate ([1]; P2(B)) | 14C sugar binding ([1]; P2(B)) | Relative enrichment of sugar binding compared to the initial filtrate ([1]; P3(B)) | 14C sugar binding ([1]; P3(B)) | Relative enrichment of sugar binding compared to the initial filtrate ([1]; P4(B)) | 14C sugar binding ([1]; P4(B)) | Kd [2, 12] | Inhibition (%) of 14C Fructose binding by unlabelled sugar [2] | Inhibition (%) of 14C Glucose binding by unlabelled sugar [2] | Inhibition (%) of 14C Sucrose binding by unlabelled sugar [2] | Relative Binding Inhibition [2, 14] | q (concentration of sugar or SSS bound per mg subfraction protein) ([2]; single class of sites) | specific binding (competition of 14C sugar or SSS with homologous unlabeled sugar or SSS) [2] | 14C sugar binding [5, 11] | Relative enrichment of sugar binding compared to the initial filtrate ([5]; P2(B)) | 14C sugar binding ([5]; P2(B)) | Relative enrichment of sugar binding compared to the initial filtrate ([5]; P4(B)) | 14C sugar binding ([5]; P4(B)) | Recognition thresholds in man [4] | also measured
10 | OC[C@H]1O[C@@H](O[C@H]2[C@H](O)[C@@H](O)C(O)O[C@@H]2CO)[C@H](O)[C@@H](O)[C@H]1O (stereo partly shown) [lactose] | – | – | – | – | – | – | – | – | – | – | – | – | – | did not compete; also recorded: did not bind specifically | – | – | – | – | – | – | specific binding (competition of 14C sugar or SSS with homologous unlabeled sugar or SSS) [7]: did not compete; also recorded: did not bind specifically
